1 substance from patent US7169567B1, “Screening assay utilizing the PTH receptor” (The General Hospital Corporation, priority 1998, dated 2007) can be followed below.

The target in assay [1] is T1, intact rat PTH-1 receptor (rWT-HA) (Rattus norvegicus, UniProt P25961).
T1 construct: expressed in transfected cells; host or cells: COS-7, transient (DEAE-dextran), pCDNA-1 based plasmid
T1 sequence (P25961 23-591 E93Y/N94P/K95Y/T99D/G100Y/S101A limits assumed): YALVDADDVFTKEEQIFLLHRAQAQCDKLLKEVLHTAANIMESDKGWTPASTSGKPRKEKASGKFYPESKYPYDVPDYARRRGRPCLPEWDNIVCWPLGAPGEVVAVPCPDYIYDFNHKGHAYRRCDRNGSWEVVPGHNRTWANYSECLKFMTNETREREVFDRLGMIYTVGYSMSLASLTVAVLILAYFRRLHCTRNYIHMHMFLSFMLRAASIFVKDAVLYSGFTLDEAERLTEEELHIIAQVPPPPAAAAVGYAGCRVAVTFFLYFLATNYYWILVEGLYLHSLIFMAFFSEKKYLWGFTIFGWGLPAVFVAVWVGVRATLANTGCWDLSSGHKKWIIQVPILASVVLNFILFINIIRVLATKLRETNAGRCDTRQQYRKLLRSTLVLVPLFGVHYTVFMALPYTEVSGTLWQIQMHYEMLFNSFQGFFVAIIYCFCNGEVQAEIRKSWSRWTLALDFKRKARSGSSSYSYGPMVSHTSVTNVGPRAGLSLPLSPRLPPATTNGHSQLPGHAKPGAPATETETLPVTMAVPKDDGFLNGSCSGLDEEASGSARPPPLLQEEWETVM
Put plainly: cAMP inhibition assay in COS-7 cells expressing rWT-HA. The assay is classed as cell-based. The following applies: antagonist 10 mM. The protocol:
(§1) FIG. 7. Antagonist Properties of PTHrP(7–34) with PTH(1–14). COS-7 cells transfected with rWT-HA (A) or rΔNt (B) were treated with the antagonist [Leu11,D-Trp12]hPTHrP(7–34)NH2 (or buffer alone), for 5 min at 22EC, followed by 10 ml of either rPTH(1–34) or rPTH(1–14) agonist peptide. Incubations were continued for 30 min at 21° C. and the resulting cAMP levels were measured by RIA, as described in Experimental Procedures. The final concentration of antagonist peptide present during the incubation was 10 mM. Shown are data from a single experiment performed in triplicate. A repeat of the same experiment yielded equivalent results.
For cAMP inhibition assays, transfected COS-7 cells were rinsed once with 500 ml of binding buffer, and 200 ml of IBMX buffer and 100 ml of binding buffer or binding buffer containing the antagonist [Leu11,D-Trp12]hPTHrP(7–34) NH2 (10 mM) were added. After a 5 minute incubation at room temperature, 10 ml of binding buffer containing PTH(1–14) or PTH(1–34) (agonist peptide) was added, and the incubation was continued for an additional 30 minutes. The cells were then lysed and intracellular cAMP levels were measured as described above. […]

The target in assay [2] is T2, truncated rat PTH-1 receptor (rΔNt) (Rattus norvegicus, UniProt P25961, E586G).
T2 construct: contains an open reading frame encoding a protein of about 435 amino acid residues; expressed in transfected cells; host or cells: COS-7, transient (DEAE-dextran), pCDNA-1 based plasmid
T2 sequence (P25961 with tags, fused parts or gaps E586G): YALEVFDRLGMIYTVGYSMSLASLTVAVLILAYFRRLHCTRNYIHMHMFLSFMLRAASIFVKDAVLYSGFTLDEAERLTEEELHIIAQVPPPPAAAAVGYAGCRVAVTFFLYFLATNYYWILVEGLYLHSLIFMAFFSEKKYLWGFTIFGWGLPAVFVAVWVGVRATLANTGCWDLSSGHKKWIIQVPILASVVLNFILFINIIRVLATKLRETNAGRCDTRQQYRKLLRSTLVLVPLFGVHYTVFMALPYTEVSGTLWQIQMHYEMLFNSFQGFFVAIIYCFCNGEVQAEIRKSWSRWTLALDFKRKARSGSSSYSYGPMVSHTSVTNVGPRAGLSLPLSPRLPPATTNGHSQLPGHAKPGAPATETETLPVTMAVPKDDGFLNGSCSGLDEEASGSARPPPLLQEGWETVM
Kind of assay: cAMP inhibition assay in COS-7 cells expressing rΔNt. The assay is classed as cell-based. The protocol: as §1
For cAMP inhibition assays, transfected COS-7 cells were rinsed once with 500 ml of binding buffer, and 200 ml of IBMX buffer and 100 ml of binding buffer or binding buffer containing the antagonist [Leu11,D-Trp12]hPTHrP(7–34) NH2 (10 mM) were added. After a 5 minute incubation at room temperature, 10 ml of binding buffer containing PTH(1–14) or PTH(1–34) (agonist peptide) was added, and the incubation was continued for an additional 30 minutes. The cells were then lysed and intracellular cAMP levels were measured as described above.
In order to determine whether [Leu11,D-Trp12]hPTHrP(7–34)NH2, a potent competitive antagonist of PTH(1–34) action (Nutt, R. F., et al., Endocrinology 127:491–493 (1990)), could block the ability of PTH(1–14) to stimulate cAMP formation in COS-7 cells expressing either rWT-HA or rΔNt (FIG. 6). With rWT-HA the inhibitor peptide reduced the efficacy of both PTH(1–14) and PTH(1–34) by as much as 70% as compared to the responses elicited by these agonists in the absence of inhibitor (FIG. 6A).

Setting [3] is: cells expressing rΔNt, antagonist 10 mM.

Turning to “[Leu^11,D-Trp^12]hPTHrP(7–34)NH2 [[Leu11,D-Trp12]hPTHrP(7–34)NH2]”, in assay [1] (agonist PTH(1–14)), the “reduction of efficacy of PTH(1–14) (cAMP) compared to response in absence of inhibitor” value is at most 70%. Further, the “reduction of efficacy of PTH(1–34) (cAMP) compared to response in absence of inhibitor” value in assay [1] (agonist PTH(1–34)) is on record as at most 70%. In addition, in assay [2] (setting [3]), the “effect on the ability of PTH(1–14) to stimulate cAMP production” value is recorded as “little or no effect” and the “effect on the ability of PTH(1–34) to stimulate cAMP production” value was “little or no effect”. Moreover, the “function as an antagonist with rΔNt” value in assay [2] (rΔNt) was “inability”.
